The record followed here is patent US12637469B2, “1H-pyrazole derivative and application thereof as dual target inhibitor of Syk and VEGFR2” (Ocumension Therapeutics (Suzhou) Co., Ltd., priority 2020, dated 2026).

Data set [1] addresses VEGFR2 kinase (KDR enzyme) (Homo sapiens, UniProt P35968). In words: In vitro inhibitory effect on VEGFR2 kinase (ADP-Glo enzymatic experiment). It is filed as biochemical. The conditions noted are these: read-out: IC50 (nM) for inhibition of VEFGR2 enzyme. As for the experimental part:
The VEGFR2 kinase assay kit is intended for measuring VEGFR2 kinase activity using Kinase-Glo®MAX as a detection reagent, and compound screening and analysis were conducted using the IC50 value of the compound as an indicator.
The ADP-GLO™ Kinase Assay is an analytical reaction in which a luminescent kinase is used to determine the adenosine diphosphate formed by the kinase; ADP is converted to ATP, i.e., an optical signal is generated by Ultra-Glo™ luciferase. The optical signal is positively correlated with ADP quantity and kinase activity. This assay is ideal for determining the activity of the compound, making it ideal for primary screening and kinase selectivity analysis. The ADP-Glo™ Kinase Assay can be used to monitor the activity of virtually any ADP-producing enzyme such as a kinase orATPase: • 1) The enzyme, substrate, ATP and inhibitor were diluted in a kinase buffer; • 2) 384-well plate: 1 μL of inhibitor or (5% dimethyl sulfoxide solution), 2 μL of KDR enzyme, 2 μL of matrix/ATP mixture; • 3) the mixture was incubated at room temperature for 60 minutes; • 4) 5 μL of ADP-GLO™ reagent was added; • 5) the mixture was incubated for 40 minutes at room temperature; • 6) 10 μL of kinase detection reagent was added; • 7) the mixture was incubated at room temperature for 30 minutes; • 8) the luminescence was recorded (integration time 0.5-1 sec). The data was shown in relative light units (rlu), which was directly related to the amount of […]. There was correlation between the percent of the conversion from ATP to ADP for each kinase amount and the corresponding signal-to-background ratio. • 9) Data analysis: (a) KDR enzyme was titrated with 50 μM of ATP, and the luminescent signal produced by KDR enzyme was shown; (b) staurosporine dose response was generated with 1.5 ng of KDR to determine the IC50 value of the inhibitor.
(In general: In ADP-Glo the light output rises with the ADP produced.)

Another data set addresses T1, CYP2C9 (Homo sapiens, UniProt P11712).
T1 construct: human liver microsome working solution was prepared; from tissue; host or cells: human liver microsomes
Briefly: Inhibition of cytochrome P450 enzymes in human liver microsomes (LC-MS/MS). The data set is classed as in vitro ADME. As for the experimental part: (§1) In order to investigate the activity of the compound on human liver microsomal CYP450 enzyme, Liquid Chromatography-Mass Spectrometry/Mass Spectrometry (LC-MS/MS) method was used in this study to determine the inhibitory effect of compound 1 on five main subtypes (CYP1A2, 2C9, 2C19, 2D6, 3A4) of human hepatocyte CYP450 enzyme, and compound screening and analysis were conducted using IC50 value as the indicator.
(§2) • 1) A test compound and a standard inhibitor working solution (100×) were prepared; • 2) microsomes were taken out of a −80° C. freezer, thawed on ice, labeled with the date, and put back in the freezer immediately after use; • 3) 20 microliters of matrix solution was added to the corresponding wells; • 4) 20 microliters of phosphate buffered saline was added to the blank wells; • 5) 2 microliters of the test compound and positive control working solution were added to the corresponding wells; • 6) 2 microliters of solvent was added to each of the inhibitor-free wells and the blank wells; • 7) human liver microsome working solution was prepared; • 8) 158 microliters of HLM working solution was added to all wells of the incubation plate; • 9) the plate was heated in a 37° C. water bath for about 10 minutes; • 10) NADPH cofactor solution was prepared; • 11) 20 microliters of NADPH cofactor was added to all of the incubation wells; • 12) all CYPs were subjected to mixed culture in a 37° C. water bath for 10 minutes; • 13) at a certain point in time, the reaction was stopped by adding 400 microliters of cold solution (200 ng/mL of tolbutamide in acetonitrile and 200 ng/mL of Labetalol in acetonitrile); • 14) the samples were centrifuged at 4000 rpm for 20 minutes to precipitate proteins; • 15) 200 microliters of supernatant was transferred into 100 microliters of high performance liquid chromatography water, and shaked for 10 minutes; • 16) LC/MS/MS analysis was started.

A further data set deals with T2, CYP3A4 (Homo sapiens, UniProt P08684).
T2 construct: human liver microsome working solution was prepared; from tissue; host or cells: human liver microsomes
The description is as above. The data set is classed as in vitro ADME. As for the experimental part: as §1, §2

The nature of data set [2]: Pharmacokinetic evaluation of ocular administration to mouse (cornea and plasma exposure). It is filed as in vivo, C57BL/6 mice. The conditions noted are these: eye drop, 0.1 mg/animal. As for the experimental part: In order to investigate the eye-to-blood ratio of the in vivo exposure amounts of the compound after ocular administration thereof, LC-MS/MS method was used in this study to determine the exposure amounts of compound 1 in cornea and plasma after the ocular administration of the compound 1 to a mouse, where compound screening and analysis were conducted by using the drug concentration at the same time point as an indicator.
C57BL/6 mice, weighing 18-20 g, were randomly divided into 4 groups after 3-5 days of acclimatization, with each group including three mice, and the mice were administered by eye drops at 5 μL for each eye.
The test animals (C57BL/6 mice) were not fasted before administration, but drank water freely before and during the experiment.
About 0.05 mL of blood was collected from saphenous vein at 1 hour and 3 hours following the eye drop administration, anticoagulated with commercial EDTA-K2, and transferred to a centrifuge for centrifugation. After blood sampling from saphenous vein, the corneas were collected under isoflurane anesthesia. At each of the time points, the plasma and corneas of the mice in the same group were pooled for detection.
Plasma: within 30 minutes the plasma was transferred to be subject to centrifugation at 4° C., 3200 g for 10 minutes, and 20 μL of plasma was taken from each mouse. At each time point, the plasma of the mice in the same group was pooled for detection.
Cornea: the cornea was removed, rinsed twice with pre-cooled normal saline, dried with a paper towel, and put into a 1.5 mL centrifuge tube, weighed with an analytical balance by a peeling method, and finally the body weight was weighed. At each time point, the corneas of the mice in the same group were pooled for detection.
Corneal homogenization method: 1 g of cornea was added to 9 mL of pre-cooled methanol: 15 mM phosphate buffer solution=1:2, an ultrasonic cell disruptor (No. 2 amplitude rod, amplitude 50%, working for 5 s, stopping for 5 s, and ultrasonic treatment for 3 min) was used.

T2 sequence (P08684 whole entry): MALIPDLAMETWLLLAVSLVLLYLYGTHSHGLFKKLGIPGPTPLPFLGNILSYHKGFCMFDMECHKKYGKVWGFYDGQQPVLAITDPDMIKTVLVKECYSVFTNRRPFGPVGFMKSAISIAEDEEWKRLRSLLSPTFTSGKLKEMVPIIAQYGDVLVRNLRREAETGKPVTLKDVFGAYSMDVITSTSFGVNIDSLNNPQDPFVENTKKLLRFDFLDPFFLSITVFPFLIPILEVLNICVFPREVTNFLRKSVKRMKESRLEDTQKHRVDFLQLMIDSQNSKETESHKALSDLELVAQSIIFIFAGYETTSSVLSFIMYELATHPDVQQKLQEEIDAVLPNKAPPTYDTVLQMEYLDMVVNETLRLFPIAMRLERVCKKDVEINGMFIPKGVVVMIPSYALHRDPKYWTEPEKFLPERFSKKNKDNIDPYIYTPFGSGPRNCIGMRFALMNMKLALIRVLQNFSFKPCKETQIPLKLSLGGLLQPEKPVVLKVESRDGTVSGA
T1 sequence (P11712 whole entry): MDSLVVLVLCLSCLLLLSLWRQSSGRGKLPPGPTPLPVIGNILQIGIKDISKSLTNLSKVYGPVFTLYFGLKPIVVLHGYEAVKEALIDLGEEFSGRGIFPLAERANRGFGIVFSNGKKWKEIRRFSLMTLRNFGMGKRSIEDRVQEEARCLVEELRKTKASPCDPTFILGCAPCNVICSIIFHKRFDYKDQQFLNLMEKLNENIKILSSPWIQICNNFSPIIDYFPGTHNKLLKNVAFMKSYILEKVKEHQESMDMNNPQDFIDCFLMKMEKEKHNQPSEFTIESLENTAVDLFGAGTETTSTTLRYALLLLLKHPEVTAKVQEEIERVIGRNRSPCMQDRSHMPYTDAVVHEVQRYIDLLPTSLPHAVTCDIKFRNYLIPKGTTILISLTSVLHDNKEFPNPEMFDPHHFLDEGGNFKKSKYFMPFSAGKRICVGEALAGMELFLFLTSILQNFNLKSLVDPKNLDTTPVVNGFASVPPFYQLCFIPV
VEGFR2 kinase (KDR enzyme), sequence (P35968 20-1356, species assumed): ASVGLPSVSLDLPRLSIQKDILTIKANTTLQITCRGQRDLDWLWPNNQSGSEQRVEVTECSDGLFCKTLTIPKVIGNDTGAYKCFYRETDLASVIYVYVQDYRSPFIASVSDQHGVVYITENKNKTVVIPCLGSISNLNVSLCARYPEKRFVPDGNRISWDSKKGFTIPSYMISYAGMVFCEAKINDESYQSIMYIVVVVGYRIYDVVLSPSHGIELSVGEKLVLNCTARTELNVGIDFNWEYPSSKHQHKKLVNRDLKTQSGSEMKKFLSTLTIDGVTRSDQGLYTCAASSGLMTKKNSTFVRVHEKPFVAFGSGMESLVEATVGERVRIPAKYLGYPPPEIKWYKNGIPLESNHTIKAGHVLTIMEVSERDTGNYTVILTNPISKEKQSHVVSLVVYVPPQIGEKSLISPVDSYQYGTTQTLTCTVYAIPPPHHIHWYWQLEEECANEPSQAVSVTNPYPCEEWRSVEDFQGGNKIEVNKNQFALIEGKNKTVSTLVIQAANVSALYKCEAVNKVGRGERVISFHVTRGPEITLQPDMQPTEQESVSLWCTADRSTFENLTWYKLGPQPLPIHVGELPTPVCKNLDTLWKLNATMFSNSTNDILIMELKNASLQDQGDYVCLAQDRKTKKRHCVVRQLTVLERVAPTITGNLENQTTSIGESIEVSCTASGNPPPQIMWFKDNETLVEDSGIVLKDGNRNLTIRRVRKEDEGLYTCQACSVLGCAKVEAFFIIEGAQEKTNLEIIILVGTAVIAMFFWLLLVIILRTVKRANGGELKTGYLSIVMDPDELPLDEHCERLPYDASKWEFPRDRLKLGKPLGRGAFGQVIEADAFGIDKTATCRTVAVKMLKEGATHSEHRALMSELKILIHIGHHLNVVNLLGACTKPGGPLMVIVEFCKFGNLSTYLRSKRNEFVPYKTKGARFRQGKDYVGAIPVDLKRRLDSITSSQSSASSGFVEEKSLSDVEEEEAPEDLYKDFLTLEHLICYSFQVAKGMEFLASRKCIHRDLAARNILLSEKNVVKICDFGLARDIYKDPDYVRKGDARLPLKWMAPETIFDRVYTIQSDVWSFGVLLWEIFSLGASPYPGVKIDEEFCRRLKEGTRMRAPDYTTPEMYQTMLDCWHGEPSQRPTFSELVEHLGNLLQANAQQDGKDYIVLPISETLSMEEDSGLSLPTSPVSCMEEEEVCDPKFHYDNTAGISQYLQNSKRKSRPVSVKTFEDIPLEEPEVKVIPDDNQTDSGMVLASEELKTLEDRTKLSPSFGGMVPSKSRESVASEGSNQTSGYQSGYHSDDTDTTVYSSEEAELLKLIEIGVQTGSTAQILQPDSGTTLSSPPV

As usually defined, the IC50 is the concentration needed to halve the response being measured. For the molecule `c1cn2c(n1)c(Nc1ccc(N3CCOCC3)cc1)nc1ccc(-c3cn[nH]c3)cc12` [Compound 1], the IC50 in data set [1] was 23 nM; against CYP2C9, > 50 nM; against CYP3A4, > 50 nM. For the same molecule, the Kp at 1 h in data set [2] (C57BL/6, cornea / plasma, other: eye drops (ocular administration), 1 hour, read-out: eye-to-blood ratio) worked out at 641. The Kp at 3 h in data set [2] (C57BL/6, cornea / plasma, other: eye drops (ocular administration), 3 hours, read-out: eye-to-blood ratio) is 427. The concentration at 1 h in data set [2] (C57BL/6, plasma, other: eye drops (ocular administration), 1 hour, read-out: Drug concentration in plasma) stood at 10.4 nM. Moreover, in data set [2] (C57BL/6, plasma, other: eye drops (ocular administration), 3 hours, read-out: Drug concentration in plasma), the concentration at 3 h was 6.8 nM. Moreover, the “Drug concentration in corneal” value in data set [2] (1 hour) is on record as 6670 nmol/kg; in data set [2] (3 hours), 2910 nmol/kg.
